{"source": "patent US4611059A", "about": "“Pyridyl-substituted benzothiophenes” (The Upjohn Company, priority 1985, dated 1986)", "target": "T1, TXA2 synthetase (Homo sapiens, UniProt P24557)", "T1 construct": "human platelet microsomes (HPM); from tissue; host or cells: human platelet microsomes", "T1 sequence (P24557 1-533)": "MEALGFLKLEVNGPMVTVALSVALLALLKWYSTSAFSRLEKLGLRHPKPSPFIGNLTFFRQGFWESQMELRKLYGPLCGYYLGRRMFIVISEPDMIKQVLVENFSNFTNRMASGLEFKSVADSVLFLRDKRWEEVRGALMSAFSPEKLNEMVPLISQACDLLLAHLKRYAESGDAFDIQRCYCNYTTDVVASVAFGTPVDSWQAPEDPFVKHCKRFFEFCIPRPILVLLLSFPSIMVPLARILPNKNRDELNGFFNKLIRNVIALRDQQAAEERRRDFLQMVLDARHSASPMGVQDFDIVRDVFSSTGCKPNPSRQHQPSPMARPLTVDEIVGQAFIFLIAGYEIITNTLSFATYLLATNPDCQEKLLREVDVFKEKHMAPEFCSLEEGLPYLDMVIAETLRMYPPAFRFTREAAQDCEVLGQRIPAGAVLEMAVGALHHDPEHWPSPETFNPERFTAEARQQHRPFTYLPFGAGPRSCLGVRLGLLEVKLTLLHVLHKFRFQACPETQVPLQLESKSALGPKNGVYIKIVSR", "assay": "TXA2 inhibition test: TXA2 generated from PGH2 with human platelet microsomes, measured by the response of superfused rabbit aortic strips", "type": "biochemical", "conditions": "test compound added to human platelet microsomes 5 minutes before mixing with PGH2; rabbit aorta response; read-out: approximate ED50 (inhibiting TXA2 formation) (converted)", "procedure": "The compounds of the present invention were tested for TXA2 inhibition as follows:\nRabbit aortic strips were superfused in series with Krebs solution. Thromboxane A2 (TXA2) was generated by mixing prostaglandin H2 (PGH2) with human platelet microsomes (HPM).\nPotential inhibitors were tested by comparing the response of the rabbit aorta to the amount of TXA2 produced by mixing PGH2 and HPM without the test compound in the reaction medium and then the amount of TXA2 produced when the test compound was added to the HPM 5 minutes before the HPM was mixed with PGH2. […] For a discussion of TXA2 synthetase inhibition testing see, e.g., R. Gorman, supra.", "data": [{"smiles": "O=C(O)c1cc2cc(Cc3cccnc3)ccc2s1", "note": "[Example 7, 5-(3-pyridinylmethyl)benzo[b]thiophene-2-carboxylic acid]", "values": [{"measurement": "IC50", "result": "~3.71", "unit": "nM"}]}]}
